Compared with `CC#CCOc1cc2ncc(C#N)c(Nc3cc(OC)c(Cl)cc3Cl)c2cc1OC` [Example 1, 7-(2-Butynyloxy)-4-[(2,4-dichloro-5-methoxyphenyl)amino]-6-methoxy-3-quinolinecarbonitrile], `COCCOc1cc2ncc(C#N)c(Nc3cc(OC)c(Cl)cc3Cl)c2cc1OC` [Example 14, 4-[(2,4-Dichloro-5-methoxyphenyl)amino]-6-methoxy-7-[2-methoxyethoxy]-3-quinolinecarbonitrile] is higher in melting point: 193 to 197 °C for the first, 210 to 212 °C for the second.

First: COCCOc1cc2c(Nc3ccc(Sc4nccn4C)c(Cl)c3)c(C#N)cnc2cc1OCCCN(C)C [Example 20, 4-({3-Chloro-4-[(1-methyl-1H-imidazol-2-yl)sulfanyl]phenyl}amino)-7-[3-(dimethylamino)propoxy]-6-(2-methoxyethoxy)-3-quinolinecarbonitrile]
Second: CCCCOc1cc2c(Nc3cc(OC)c(Cl)cc3Cl)c(C#N)cnc2cc1OCCOC [Example 24, 6-Butoxy-4-[(2,4-dichloro-5-methoxyphenyl)amino]-7-(2-methoxyethoxy)-3-quinolinecarbonitrile]
The melting point of the first is higher: 194 to 203 °C for the first, 166 to 167 °C for the second.

Compared with `COCCNc1cc2ncc(C#N)c(Nc3cc(OC)c(Cl)cc3Cl)c2cc1OC` [Example 56, 4-[(2,4-Dichloro-5-methoxyphenyl)amino]-6-methoxy-7-[(2-methoxyethyl)amino]quinoline-3-carbonitrile], `CCN1CCC(COc2cc3ncc(C#N)c(Nc4cc(OC)c(Cl)cc4Cl)c3cc2OC)CC1` [Example 51, 4-[(2,4-Dichloro-5-methoxyphenyl)amino]-7-[(1-ethylpiperidine-4-yl)methoxy]-6-methoxyquinoline-3-carbonitrile] is higher in melting point: 165 to 166 °C for the first, 192 to 195 °C for the second.

First: COCCOc1cc2ncc(C#N)c(Nc3cc(OC)c(Cl)cc3Cl)c2cc1OCCN1CCOCC1 [Example 26, 4-[(2,4-Dichloro-5-methoxyphenyl)amino]-7-(2-methoxyethoxy)-6-(2-morpholin-4-ylethoxy)3-quinolinecarbonitrile]
Second: COc1cc(Nc2c(C#N)cnc3cc(OCC4CCNCC4)c(OC)cc23)c(Cl)cc1Cl [Example 53, 4-[(2,4-Dichloro-5-methoxyphenyl)amino]-6-methoxy-7-(piperidin-4-ylmethoxy)quinoline-3-carbonitrile]
The melting point of the first is higher: 158 to 159 °C for the first, 134 to 138 °C for the second.

Compared with `COc1cc(Nc2c(C#N)cnc3cc(SCc4ccccc4)c(OC)cc23)c(Cl)cc1Cl` [Example 11, 7-Benzylthio-4-[(2,4-dichloro-5-methoxyphenyl)amino]-6-methoxy-3-quinolinecarbonitrile], `COc1cc(Nc2c(C#N)cnc3cc(OCc4ccccc4)c(OC)cc23)c(Cl)cc1Cl` [Example 6, 7-Benzyloxy-4-[(2,4-dichloro-5-methoxyphenyl)amino]-6-methoxy-3-quinolinecarbonitrile] is higher in melting point: 123 to 125 °C for the first, 198 to 200 °C for the second.

In the case of `COCCOc1cc2ncc(C#N)c(Nc3ccc(C)cc3C)c2cc1OC` [Example 40, 4-[(2,4-Dimethylphenyl)amino]-6-methoxy-7-(2-methoxyethoxy)quinoline-3-carbonitrile], the melting point is reported as 107 to 109 °C.

— US6780996B2, “Process for the preparation of 7-substituted-3 quinolinecarbonitriles” (Wyeth Holdings Corporation, priority 2002, dated 2004)
